The source of these data is patent US7022689B2, “5-amidino-n-(2-aminophenethyl)-n-hydroxy-benzenesulffonamide derivative, medical composition containing the same, pharmaceutical use thereof and intermediate therefor” (Kissei Pharmaceutical Co., Ltd., priority 2001, dated 2006).

In one assay the target is T1, human thrombin (Homo sapiens, UniProt P00734).
T1 construct: human thrombin (Sigma Chemical Company); purchased Sigma Chemical Company
Nature of the assay: Measurement of inhibitory activity for thrombin (S-2238 chromogenic substrate). The note with it: substrate S-2238, tris-NaCl buffer pH 8.4, 10 minutes at 37° C., absorbance 405 nm. The class given is biochemical. How it is done: Measurement of Inhibitory Activity for Thrombin
2.5 μL of a dimethylsulfoxide solution of a test compound, 187.5 μL of 100 mM tris-200 mM NaCl buffer (pH 8.4) and 50 μL of 1 mM S-2238 (Daiichi Pure Chemicals) aqueous solution were poured into 96 well microplate. Then 10 μL of 2.0 U/mL human thrombin (Sigma Chemical Company) in gelatin-glycine buffer was added and the mixture was incubated for 10 minutes at 37° C. The reaction was terminated with the addition of 50 μL of 60% acetic acid and absorbance (405 nm) was measured by a microplate reader (SPECTRAmax250, Molecular Devices).
The group with 2.5 μL of the dimethylsulfoxide solution instead of the test compound solution was defined as the control, and the group with 10 μL of the gelatin-glycine buffer solution instead of human thrombin was defined as the blank. The concentration of a test compound that inhibited the absorbance of control by 50% (IC50) was obtained, and this value was used as the index of inhibitory activity for thrombin.

Assay [1] has as its target T2, human activated blood coagulation factor X (Homo sapiens, UniProt P00742).
T2 construct: purchased Calbiochem
Nature of the assay: Measurement of inhibitory activity for activated blood coagulation factor X (S-2222 chromogenic substrate). The class given is biochemical. The note with it: substrate S-2222, tris-NaCl buffer pH 8.4, 10 minutes at 37° C., absorbance 405 nm.
Experimental: Measurement of Inhibitory Activity for Activated Blood Coagulation Factor X 2.5 μL of a dimethylsulfoxide solution of a test compound, 187.5 μL of 100 mM tris-200 mM NaCl buffer (pH 8.4) and 50 μL of 1 mM S-2222 (Daiichi Pure Chemicals) aqueous solution were poured into 96 well microplate. Then 10 μL of 0.6 U/mL human activated blood coagulation factor X (Calbiochem) in gelatin-glycine buffer was added and the mixture was incubated for 10 minutes at 37° C. The reaction was terminated with the addition of 50 μL of 60% acetic acid and absorbance (405 nm) was measured by a microplate reader (SPECTRAmax250, Molecular Devices). The group with 2.5 μL of the dimethylsulfoxide solution instead of the test compound solution was defined as the control, and the group with 10 μL of the gelatin-glycine buffer solution instead of human activated blood coagulation factor X was defined as the blank.

Counter-ions that a name gives are not always drawn.

T2 sequence (P00742 235-488 limits assumed): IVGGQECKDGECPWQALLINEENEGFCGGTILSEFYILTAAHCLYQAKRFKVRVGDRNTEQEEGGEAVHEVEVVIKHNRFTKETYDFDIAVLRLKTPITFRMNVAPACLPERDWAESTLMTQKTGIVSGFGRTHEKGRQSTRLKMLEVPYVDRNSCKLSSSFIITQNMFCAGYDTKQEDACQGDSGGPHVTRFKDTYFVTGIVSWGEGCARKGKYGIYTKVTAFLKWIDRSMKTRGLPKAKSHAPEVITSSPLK
T2 sequence (P00742 41-179 partner limits assumed): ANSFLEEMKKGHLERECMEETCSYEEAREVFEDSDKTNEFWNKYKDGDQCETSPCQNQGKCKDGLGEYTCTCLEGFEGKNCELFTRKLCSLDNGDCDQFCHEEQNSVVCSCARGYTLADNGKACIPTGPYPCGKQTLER

In the case of `CC(C)c1ccc(CCNS(=O)(=O)c2cc(C(=N)N)ccc2O)c(NCC(=O)O)c1` [Compound 18, [[2-[2-(5-Carbamimidoyl-2-hydroxybenzenesulfonylamino)ethyl]-5-isopropylphenyl]amino]acetic acid], the IC50 was greater than 100000 nM at human thrombin and 77 nM in assay [1].

As for `CS(=O)(=O)c1ccccc1-c1ccc(CCNS(=O)(=O)c2cc(C(=N)N)ccc2O)c(NCC(=O)O)c1` [Compound 17, [[4-[2-(5-Carbamimidoyl-2-hydroxybenzenesulfonylamino)ethyl]-2′-methanesulfonylbiphenyl-3-yl]amino]acetic aid hydrochloride], the IC50 against human thrombin came out at 37000 nM; in assay [1], 7.1 nM.

Broadly, the IC50 is the midpoint of a concentration-inhibition curve. Read a low IC50 as greater potency in that assay.
